In assay [1] the target is T1, human GIP receptor (hGIPR) (Homo sapiens, UniProt P48546).
T1 construct: expressed in transfected cells; crude membranes
T1 sequence (P48546 22-466): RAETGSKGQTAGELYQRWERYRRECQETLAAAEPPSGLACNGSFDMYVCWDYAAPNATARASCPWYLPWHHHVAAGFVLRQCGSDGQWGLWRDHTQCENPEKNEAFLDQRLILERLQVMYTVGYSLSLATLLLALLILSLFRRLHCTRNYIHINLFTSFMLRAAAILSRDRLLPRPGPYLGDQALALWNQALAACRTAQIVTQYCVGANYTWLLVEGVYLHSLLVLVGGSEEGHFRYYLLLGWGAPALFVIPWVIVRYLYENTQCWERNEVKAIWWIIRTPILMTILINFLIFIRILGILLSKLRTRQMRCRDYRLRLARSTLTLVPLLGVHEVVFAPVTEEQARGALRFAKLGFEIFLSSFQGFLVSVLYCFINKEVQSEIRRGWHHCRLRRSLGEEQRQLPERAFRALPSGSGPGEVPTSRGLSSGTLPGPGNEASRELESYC
Put plainly: [125I]-GIP binding, SPA with membranes of CHO cells expressing hGIPR. Here is the method: Two methods are used for the preparation of crude cell membranes.
Method 1: Frozen cell pellets are lysed on ice in hypotonic buffer containing 50 mM Tris HCl, pH 7.5, and Roche Complete™ Protease Inhibitors with EDTA. […] The homogenate is centrifuged at 4° C. at 1100 × g for 10 minutes. The supernatant is collected and stored on ice while the pellets are resuspended in homogenization buffer and rehomogenized as described above. The homogenate is centrifuged at 1100 × g for 10 minutes. The second supernatant is combined with the first supernatant and centrifuged at 35000 × g for 1 hour at 4° C. The resulting membrane pellet is resuspended in homogenization buffer containing protease inhibitors at approximately 1 to 3 mg/mL, quick frozen in liquid nitrogen and stored as aliquots in a -80° C. freezer until use.
The homogenate is centrifuged at 4° C. at 1800 × g for 15 minutes. The supernatant is collected and stored on ice while the pellets are resuspended in homogenization buffer (without DNAse I) and rehomogenized as described above. The homogenate is centrifuged at 1800 × g for 15 minutes. The second supernatant is combined with the first supernatant and centrifuged an additional time at 1800 × g for 15 minutes. The overall supernatant is then centrifuged at 25000 × g for 30 minutes at 4° C. The resulting membrane pellet is resuspended in homogenization buffer (without DNAse I) containing protease inhibitors at approximately 1 to 3 mg/mL and stored as aliquots in a -80° C. freezer until use.
The binding buffer contains 25 mM HEPES, pH 7.4, 2.5 mM CaCl2, 1 mM MgCl2, 0.1% (w/v) bacitracin, 0.003% (w/v) TWEEN®-20, and Roche Complete™ Protease Inhibitors without EDTA. Peptides and GIP are thawed and 3 fold serially diluted in 100% DMSO (10 point concentration response curves). […] Plates are sealed and mixed on a plate shaker (setting 6) for 1 minute and read with a PerkinElmer Trilux MicroBeta® scintillation counter after 2.5 to 12 hours of incubation/settling time at room temperature.
Raw CPM data for concentration curves of peptides, Gcg, GLP-1, or GIP are converted to percent inhibition by subtracting nonspecific binding (binding in the presence of excess unlabeled Gcg, GLP-1, or GIP, respectively) from the individual CPM values and dividing by the total binding signal, also corrected by subtracting nonspecific binding. Data are analyzed using four-parameter (curve maximum, curve minimum, IC50, Hill slope) nonlinear regression routines (Genedata Screener, version 12.0.4, Genedata AG, Basal, Switzerland). […] Values for Ki are reported as the geometric mean, with error expressed as the standard error of the mean (SEM) and n is equal to the number of independent replicates (determined in assays performed on different days). Geometric Means are calculated as follows: […]
The Ki Ratio (Ki for native control peptide/Ki for test compound) at each receptor and each species is calculated. The Ki Ratio is a rapid indication of the apparent affinity of a peptide compared to the native control peptide.
n=⅟x means that only one value out of the total number of replicates (x) is used to express the mean. SEM is only calculated when n=2 or greater non-qualified results exist. Means are expressed as GeoMetric means with the standard error of the mean (SEM) and the number of replicates (n) indicated in parenthesis.

The target of assay [2] is T2, hGCGR (Homo sapiens, UniProt P47871).
T2 construct: expressed in transfected cells
T2 sequence (P47871 26-477): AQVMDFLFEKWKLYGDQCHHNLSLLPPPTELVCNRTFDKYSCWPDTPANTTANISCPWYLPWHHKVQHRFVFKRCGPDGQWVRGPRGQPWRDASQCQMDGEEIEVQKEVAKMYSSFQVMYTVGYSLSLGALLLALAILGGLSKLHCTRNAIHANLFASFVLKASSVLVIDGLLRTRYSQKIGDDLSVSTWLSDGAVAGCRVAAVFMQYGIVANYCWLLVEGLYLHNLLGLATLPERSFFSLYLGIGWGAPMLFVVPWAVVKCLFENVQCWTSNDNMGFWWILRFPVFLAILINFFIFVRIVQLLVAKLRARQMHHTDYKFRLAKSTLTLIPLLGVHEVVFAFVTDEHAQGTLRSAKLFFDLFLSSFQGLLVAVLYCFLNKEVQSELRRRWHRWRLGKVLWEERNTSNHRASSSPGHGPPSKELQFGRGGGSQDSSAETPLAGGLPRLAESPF
Put plainly: Functional cAMP formation (HTRF) in HEK-293 clonal cells expressing hGCGR, 0.1% bovine casein, without or with 1.0% human serum albumin. The class given is cell-based. The gist of the method:
(§1)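 Cells were stimulated with peptide for 30 min at 37° C, then intracellular cAMP was measured by competitive HTRF (665/620 nm ratio) and converted to nM using a cAMP standard curve. Relative EC50 and Emax came from four-parameter logistic fits of percent maximal response against peptide concentration.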
For orientation: cAMP levels reflect the balance of adenylyl cyclase and phosphodiesterase activity.

In assay [3] the target is hGLP-1R (Homo sapiens, UniProt P43220). Put plainly: Functional cAMP formation (HTRF) in HEK-293 clonal cells expressing hGLP-1R, 0.1% bovine casein, without or with 1.0% human serum albumin. The conditions noted are these: for Emax: percent of maximal response to GLP-1(7-36)NH2. The class given is cell-based. Also on record: expressed in transfected cells. The method in brief: as §1
Sequence of hGLP-1R (P43220 24-463): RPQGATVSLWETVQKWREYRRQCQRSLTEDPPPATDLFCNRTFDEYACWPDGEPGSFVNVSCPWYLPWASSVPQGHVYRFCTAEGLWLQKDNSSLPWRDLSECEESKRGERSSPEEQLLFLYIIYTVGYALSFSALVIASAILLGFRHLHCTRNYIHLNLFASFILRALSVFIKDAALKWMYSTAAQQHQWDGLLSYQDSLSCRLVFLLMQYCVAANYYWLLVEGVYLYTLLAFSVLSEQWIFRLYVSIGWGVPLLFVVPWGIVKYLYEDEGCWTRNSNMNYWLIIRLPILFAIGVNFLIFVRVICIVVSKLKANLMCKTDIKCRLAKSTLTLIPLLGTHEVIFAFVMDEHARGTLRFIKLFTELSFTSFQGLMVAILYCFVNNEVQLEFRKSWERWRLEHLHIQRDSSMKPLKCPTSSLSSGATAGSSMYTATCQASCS

For assay [4], the target named is T3, hGIPR (Homo sapiens, UniProt P48546).
T3 construct: expressed in transfected cells
T3 sequence (P48546 22-466): T1 sequence (P48546 22-466)
Nature of the assay: Functional cAMP formation (HTRF) in HEK-293 clonal cells expressing hGIPR, 0.1% bovine casein, without or with 1.0% human serum albumin. Particulars: for Emax: percent of maximal response to GIP(1-42)NH2; for EC50: geometric mean. The class given is cell-based. The method in brief: as §1

Read-outs that look alike come from different tables or passages of the source.

Among the data in patent publication US20230265151A1, “GIP/GLP1 CO-AGONIST COMPOUNDS” (priority 2020, published 2023) are Ki, EC50 and Emax values, retold here.

By Ki is commonly meant a measure of affinity in units of concentration, obtained from inhibition or displacement. A word on the EC50: it is the concentration giving half of the maximal effect. What is called Emax is the greatest response seen or fitted, relative to the assay's reference. `CC[C@H](C)[C@H](NC(=O)[C@H](CCCN)NC(=O)[C@H](CC(=O)O)NC(=O)[C@H](CC(C)C)NC(=O)[C@](C)(CC(C)C)NC(=O)[C@@H](NC(=O)C(C)(C)NC(=O)[C@H](Cc1ccc(O)cc1)NC(=O)[C@H](CC(=O)O)NC(=O)[C@H](CO)NC(=O)[C@@H](NC(=O)[C@](C)(Cc1ccccc1F)NC(=O)[C@@H](NC(=O)CNC(=O)[C@H](CCC(=O)O)NC(=O)C(C)(C)NC(=O)[C@@H](N)Cc1ccc(O)cc1)[C@@H](C)O)[C@@H](C)O)[C@@H](C)CC)C(=O)N[C@@H](C)C(=O)N[C@@H](CCC(N)=O)C(=O)NC(C)(C)C(=O)N[C@@H](CCCN)C(=O)N[C@@H](Cc1ccccc1)C(=O)N[C@H](C(=O)N[C@@H](CCCCNC(=O)COCCOCCNC(=O)COCCOCCNC(=O)COCCOCCNC(=O)CC[C@H](NC(=O)CCCCCCCCCOc1ccc(C(=O)O)cc1)C(=O)O)C(=O)N[C@@](C)(Cc1ccc(O)cc1)C(=O)N[C@@H](CC(C)C)C(=O)N[C@H](C(=O)N[C@@H](CCCCNC(=O)COCCOCCNC(=O)COCCOCCNC(=O)COCCOCCNC(=O)CC[C@H](NC(=O)CCCCCCCCCOc1ccc(C(=O)O)cc1)C(=O)O)C(=O)NCC(=O)NCC(=O)N1CCC[C@H]1C(=O)N[C@@H](CO)C(=O)N[C@@H](CO)C(=O)NCC(=O)N[C@@H](C)C(=O)N1CCC[C@H]1C(=O)N1CCC[C@H]1C(=O)N1CCC[C@H]1C(=O)N[C@@H](CO)C(N)=O)[C@@H](C)CC)[C@@H](C)CC` [Example 481] yielded a Ki in assay [1] of 0.0266 nM. Besides, the EC50 in assay [2] (hGCGR EC50, nM (SEM, n), cAMP, 37° C., 0.1% bovine casein (no human serum albumin), geometric mean) is over 9950 nM; in assay [2] (hGCGR EC50, nM (SEM, n), cAMP, 37° C., 0.1% bovine casein and 1.0% human serum albumin, geometric mean (SEM, n)), over 9950 nM; in assay [3] (hGLP-1R EC50, nM (SEM, n), cAMP, 37° C., 0.1% bovine casein (no human serum albumin), geometric mean) it was 0.279 nM; in assay [3] (hGLP-1R EC50, nM (SEM, n), cAMP, 37° C., 0.1% bovine casein and 1.0% human serum albumin, geometric mean (SEM, n)), 6.16 nM; in assay [4] (hGIPR EC50, nM (SEM, n), cAMP, 37° C., 0.1% bovine casein (no human serum albumin)) it was 0.0181 nM. Besides, the maximal response (Emax) was determined as 112% in assay [3] (HEK293, read-out: hGLP-1R Emax, % ± SEM, cAMP, 37° C., 0.1% bovine casein and 1.0% human serum albumin); 111% in assay [3] (HEK293, read-out: hGLP-1R Emax, % ± SEM, cAMP, 37° C., 0.1% bovine casein, arithmetic mean); 82.7% in assay [4] (HEK293, read-out: hGIPR Emax, % ± SEM, cAMP, 37° C., 0.1% bovine casein and 1.0% human serum albumin); 97.9% in assay [4] (HEK293, read-out: hGIPR Emax, % ± SEM, cAMP, 37° C., 0.1% bovine casein, arithmetic mean).
Take `CC[C@H](C)[C@H](NC(=O)[C@H](CC(C)C)NC(=O)[C@](C)(Cc1ccc(O)cc1)NC(=O)[C@@H](CCC(=O)O)NC(=O)[C@@H](NC(=O)[C@H](Cc1ccccc1)NC(=O)[C@H](CCC(=O)O)NC(=O)C(C)(C)NC(=O)[C@H](CCC(N)=O)NC(=O)[C@H](C)NC(=O)[C@H](CCCCNC(=O)[C@@H](N)CCCCNC(=O)[C@@H](N)CCCCNC(=O)CC[C@H](NC(=O)CCCCCCCCCCCCC(=O)O)C(=O)O)NC(=O)[C@H](CCCN)NC(=O)[C@H](CC(=O)O)NC(=O)[C@H](CC(C)C)NC(=O)[C@](C)(CC(C)C)NC(=O)[C@@H](NC(=O)[C@H](CO)NC(=O)[C@H](Cc1ccncc1)NC(=O)[C@H](CC(=O)O)NC(=O)[C@H](CO)NC(=O)[C@@H](NC(=O)[C@](C)(Cc1ccccc1F)NC(=O)[C@@H](NC(=O)CNC(=O)[C@H](CCC(=O)O)NC(=O)C(C)(C)NC(=O)[C@@H](N)Cc1ccc(O)cc1)[C@@H](C)O)[C@@H](C)O)[C@@H](C)CC)[C@@H](C)CC)C(=O)N[C@@H](CCC(=O)O)C(=O)NCC(=O)NCC(=O)N[C@@H](CCCCNC(=O)[C@@H](N)CCCCNC(=O)[C@@H](N)CCCCNC(=O)CC[C@H](NC(=O)CCCCCCCCCCCCC(=O)O)C(=O)O)C(=O)N[C@@H](CO)C(=O)N[C@@H](CO)C(=O)NCC(=O)N[C@@H](C)C(=O)N1CCC[C@H]1C(=O)N1CCC[C@H]1C(=O)N1CCC[C@H]1C(=O)N[C@@H](CO)C(N)=O` [Example 40]: the Ki in assay [1] (human GIPR, geometric mean (SEM, n), read-out: Binding Affinity Ki, nM (SEM, n) hGIPR) is 0.163 nM. Also, the EC50 in assay [2] (0.1% bovine casein and 1.0% human serum albumin, 37° C., geometric mean, read-out: hGCGR EC50, nM (SEM, n)) was over 9950 nM; in assay [2] (cAMP, incubated at 37° C., 0.1% bovine casein (no human serum albumin), geometric mean, read-out: hGCGR EC50, nM (SEM, n)), over 9950 nM; in assay [3] (0.1% bovine casein and 1.0% human serum albumin, 37° C., geometric mean, read-out: hGLP-1R EC50, nM (SEM, n)) it was 6.69 nM; in assay [3] (cAMP, incubated at 37° C., 0.1% bovine casein (no human serum albumin), geometric mean, read-out: hGLP-1R EC50, nM (SEM, n)), 0.279 nM; in assay [4] (0.1% bovine casein and 1.0% human serum albumin, 37° C., read-out: hGIPR EC50, nM (SEM, n)), 0.301 nM; in assay [4] (cAMP, incubated at 37° C., 0.1% bovine casein (no human serum albumin), read-out: hGIPR EC50, nM (SEM, n)), 0.0116 nM.
